Reference: patent publication US20160016951A1 (Merck Patent GmbH, priority 2014, published 2016)

Molecular target: T1, CDK8 (CDK8/CycC) (Homo sapiens, UniProt P49336)
T1 construct: purchased Invitrogen PV4402
Test: FRET based Lanthascreen binding competition assay
Conditions: 5 nM CDK8/CycC, 10 nM Alexa647-Tracer, 1% DMSO, 60 min at RT; read-out: IC50 CDK8 binding
Summary of the method: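 CDK8 co-expressed with CycC and labelled through biotinylated anti-His antibody and streptavidin-Eu was preincubated with compound for 20 min at RT. An Alexa647 ATP-competitive probe was then added for 60 min at RT in the dark. Probe displacement was read as loss of TR-FRET (excitation 340 nm, emission 650 nm).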

T1 sequence (P49336 whole entry): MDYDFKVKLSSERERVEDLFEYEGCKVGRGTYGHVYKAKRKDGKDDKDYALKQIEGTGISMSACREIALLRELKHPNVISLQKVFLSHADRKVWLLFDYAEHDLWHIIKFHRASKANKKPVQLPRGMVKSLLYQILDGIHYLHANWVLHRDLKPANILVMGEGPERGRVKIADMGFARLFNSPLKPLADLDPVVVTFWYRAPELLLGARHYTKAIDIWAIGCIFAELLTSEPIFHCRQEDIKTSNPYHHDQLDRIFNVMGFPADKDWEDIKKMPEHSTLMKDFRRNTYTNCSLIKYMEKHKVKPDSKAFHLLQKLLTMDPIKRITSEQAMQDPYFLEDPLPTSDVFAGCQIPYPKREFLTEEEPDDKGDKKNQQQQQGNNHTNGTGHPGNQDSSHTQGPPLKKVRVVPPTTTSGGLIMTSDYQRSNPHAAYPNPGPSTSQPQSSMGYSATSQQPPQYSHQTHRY
T1 sequence (P24863 whole entry partner): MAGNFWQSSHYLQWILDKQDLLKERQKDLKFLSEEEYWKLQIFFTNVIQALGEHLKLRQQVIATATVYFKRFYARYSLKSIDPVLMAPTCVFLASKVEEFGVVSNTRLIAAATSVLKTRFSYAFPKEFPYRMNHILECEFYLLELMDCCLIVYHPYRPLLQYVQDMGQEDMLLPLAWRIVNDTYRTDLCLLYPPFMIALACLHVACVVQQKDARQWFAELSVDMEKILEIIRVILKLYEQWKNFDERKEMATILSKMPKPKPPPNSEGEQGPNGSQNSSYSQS

Row | Structure (SMILES) | IC50 [nM]
1 | COC1CN(C(=O)c2ccc3cncc(-c4ccc5c(cnn5CC(C)(C)O)c4)c3n2)C1 [Compound 52, (8-(1-(2-hydroxy-2-methylpropyl)-1H-indazol-5-yl)-1,6-naphthyridin-2-yl)(3-methoxyazetidin-1-yl)methanone] | 10 to 100
2 | COC1CN(C(=O)c2ccc3cncc(-c4ccc(-c5cnn(CC(C)(C)O)c5)cc4)c3c2)C1 [Compound 131, (4-(4-(1-(2-hydroxy-2-methylpropyl)-1H-pyrazol-4-yl)phenyl)isoquinolin-6-yl)(3-methoxyazetidin-1-yl)methanone] | 10 to 100
3 | COCC(=O)Nc1ccc2cncc(-c3ccc(-c4cnn(C)c4)cc3)c2c1 [Compound 121, 2-Methoxy-N-{4-[4-(1-methyl-1H-pyrazol-4-yl)-phenyl]-isoquinolin-6-yl}-acetamide] | 10 to 100
4 | Cn1cc(-c2ccc(-c3cncc4ccc(C(=O)N5CCC(F)(F)CC5)nc34)cc2)cn1 [Compound 35, (4,4-difluoropiperidin-1-yl)(8-(4-(1-methyl-1H-pyrazol-4-yl)phenyl)-1,6-naphthyridin-2-yl)methanone] | < 10

The remaining lines, values ahead:

Row | IC50 [nM] | Structure (SMILES)
5 | 10 to 100 | CC(C)(O)Cn1cc(-c2ccc(-c3cncc4ccc(C(=O)N5CC(F)(F)C5)cc34)cc2)cn1 [Compound 136]
6 | 10 to 100 | COC1CN(C(=O)c2ccc3c(N)ncc(-c4ccc(-c5cnn(C(C)C)c5)cc4)c3n2)C1 [Compound 161, (5-amino-8-(4-(1-isopropyl-1H-pyrazol-4-yl)phenyl)-1,6-naphthyridin-2-yl)(3-methoxyazetidin-1-yl)methanone]
